Test results: the supplement of paper PMC11451515

Key:
Conditions in all cases: 48 h
SEM cells [1] = assay: AUC of viability dose-response curve (% viability x log10 dose units); higher = less sensitive
Method in brief: (§1)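 Area under the curve was integrated by trapezoidal rule from a log-logistic fit of normalised viability, with curves exceeding full viability scaled and quality-control failures removed. The fit had four parameters over log10 doses. Viability came from CellTiter-Glo One luminescence, normalised per plate to DMSO and cell-free wells, after leukemia cells adapted to each medium (500 or 1000 cells/well, 1536-well plates) were exposed to library compounds in DMSO for 48 h at 37°C. The 11 threefold doses ran from 47 μM to 0.79 nM.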

NOMO1 = assay: as above
Method in brief: as §1

P12-Ichikawa = assay: as above
Method in brief: as §1

SEM cells [2] = assay: cell viability relative to DMSO control; higher = less cytotoxic
Method in brief: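 NOMO1 or SEM cells were plated at 500 cells/well and P12-Ichikawa cells at 1000 cells/well in 1536-well plates (5 μl), after each leukemia line had been adapted for at least four passages in each medium. Pin dosing delivered library compounds in DMSO at 11 threefold concentrations, 47 μM to 0.79 nM. CellTiter-Glo One luminescence was read after 48 h at 37°C. Viability is reported as a per-plate percentage of DMSO wells, with cell-free wells as background.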

[3] = RPMI 5 mM glucose + 10% dialyzed FBS
[4] = HPLM + 10% dialyzed FBS, 0.000781 µM
[5] = HPLM + 10% dialyzed FBS, 0.00234 µM
[6] = HPLM + 10% dialyzed FBS, 0.00702 µM
[7] = HPLM + 10% dialyzed FBS, 0.0211 µM
[8] = HPLM + 10% dialyzed FBS, 0.0632 µM
[9] = HPLM + 10% dialyzed FBS, 0.19 µM
[10] = HPLM + 10% dialyzed FBS, 0.569 µM
[11] = HPLM + 10% dialyzed FBS, 1.71 µM
[12] = HPLM + 10% dialyzed FBS, 5.12 µM
[13] = HPLM + 10% dialyzed FBS, 15.4 µM
[14] = HPLM + 10% dialyzed FBS, 46.1 µM
[15] = RPMI 5 mM glucose + 10% dialyzed FBS, 0.000781 µM
[16] = RPMI 5 mM glucose + 10% dialyzed FBS, 0.00234 µM
[17] = RPMI 5 mM glucose + 10% dialyzed FBS, 0.00702 µM
[18] = RPMI 5 mM glucose + 10% dialyzed FBS, 0.0211 µM
[19] = RPMI 5 mM glucose + 10% dialyzed FBS, 0.0632 µM
[20] = RPMI 5 mM glucose + 10% dialyzed FBS, 0.19 µM
[21] = RPMI 5 mM glucose + 10% dialyzed FBS, 0.569 µM
[22] = RPMI 5 mM glucose + 10% dialyzed FBS, 1.71 µM
[23] = RPMI 5 mM glucose + 10% dialyzed FBS, 5.12 µM
[24] = RPMI 5 mM glucose + 10% dialyzed FBS, 15.4 µM
[25] = RPMI 5 mM glucose + 10% dialyzed FBS, 46.1 µM

SMILES | AUC of viability dose-response curve (SEM cells [1]; HPLM + 10% dialyzed FBS) | AUC of viability dose-response curve (SEM cells [1]; RPMI 5 mM glucose + 10% FBS) | AUC of viability dose-response curve (SEM cells [1]; [3]) | AUC of viability dose-response curve (NOMO1; HPLM + 10% dialyzed FBS) | AUC of viability dose-response curve (NOMO1; RPMI 5 mM glucose + 10% FBS) | AUC of viability dose-response curve (NOMO1; [3]) | AUC of viability dose-response curve (P12-Ichikawa; HPLM + 10% dialyzed FBS) | AUC of viability dose-response curve (P12-Ichikawa; RPMI 5 mM glucose + 10% FBS) | AUC of viability dose-response curve (P12-Ichikawa; [3]) | cell viability (SEM cells [2]; [4]) [%] | cell viability (SEM cells [2]; [5]) [%] | cell viability (SEM cells [2]; [6]) [%] | cell viability (SEM cells [2]; [7]) [%] | cell viability (SEM cells [2]; [8]) [%] | cell viability (SEM cells [2]; [9]) [%] | cell viability (SEM cells [2]; [10]) [%] | cell viability (SEM cells [2]; [11]) [%] | cell viability (SEM cells [2]; [12]) [%] | cell viability (SEM cells [2]; [13]) [%] | cell viability (SEM cells [2]; [14]) [%] | also measured
CCc1cnn2c(NCc3ccc[n+]([O-])c3)cc(N3CCCC[C@H]3CCO)nc12 | 206 | 193 | 198 | 224 | 231 | 223 | 236 | 230 | 234 |  |  |  |  |  |  |  |  |  |  |  | 
c1ccc2c(CCNc3ccc(Nc4ccncc4)cc3)c[nH]c2c1 | 312 | 282 | 308 | 426 | 430 | 425 | 444 | 429 | 418 |  |  |  |  |  |  |  |  |  |  |  | 
N=C1S/C(=C\c2ccc(-c3ccc4c(c3)C(=O)NC4=O)o2)C(=O)N1c1ccc(Br)cc1 | 453 | 365 | 458 | 444 | 464 | 459 | 452 | 443 | 448 |  |  |  |  |  |  |  |  |  |  |  | 
N[C@@H]1C[C@H]1c1ccccc1 | 449 | 456 | 457 | 464 | 468 | 465 | 437 | 462 | 459 | 122 | 115 | 148 | 124 | 107 | 137 | 131 | 119 | 107 | 117 | 109 | 
C[S+](=O)([O-])OCCCCO[S+](C)(=O)[O-] | 440 | 438 | 436 | 407 | 449 | 462 | 451 | 438 | 450 | 102 | 119 | 134 | 124 | 145 | 129 | 142 | 128 | 109 | 89.6 | 43.1 | 
CC1(C)[C@H](C(=O)O)N2C(=O)C[C@H]2[S+]1(=O)[O-] | 472 | 468 | 472 | 396 | 411 | 420 | 468 | 470 | 469 |  |  |  |  |  |  |  |  |  |  |  | 
Clc1ccc(C(Cn2ccnc2)OCc2c(Cl)cccc2Cl)c(Cl)c1 (stereo not given) | 462 | 471 | 467 | 466 | 468 | 468 | 474 | 466 | 468 | 109 | 105 | 121 | 107 | 117 | 125 | 130 | 117 | 121 | 114 | 117 | 
COc1ccc([S+](=O)([O-])Nc2cc(-c3c(O)ccc4ccccc34)c(O)c3ccccc23)cc1 | 408 | 383 | 389 | 435 | 453 | 462 | 429 | 439 | 432 | 96.8 | 111 | 134 | 115 | 101 | 116 | 101 | 97 | 86.4 | 43.4 | 6.74 | cell viability (SEM cells [2]; RPMI 5 mM glucose + 10% FBS, 0.000781 µM): 114%; cell viability (SEM cells [2]; RPMI 5 mM glucose + 10% FBS, 0.00234 µM): 115%; cell viability (SEM cells [2]; RPMI 5 mM glucose + 10% FBS, 0.00702 µM): 124%; cell viability (SEM cells [2]; RPMI 5 mM glucose + 10% FBS, 0.0211 µM): 131%; cell viability (SEM cells [2]; RPMI 5 mM glucose + 10% FBS, 0.0632 µM): 119%; cell viability (SEM cells [2]; RPMI 5 mM glucose + 10% FBS, 0.19 µM): 127%; cell viability (SEM cells [2]; RPMI 5 mM glucose + 10% FBS, 0.569 µM): 115%; cell viability (SEM cells [2]; RPMI 5 mM glucose + 10% FBS, 1.71 µM): 88.7%; cell viability (SEM cells [2]; RPMI 5 mM glucose + 10% FBS, 5.12 µM): 78.6%; cell viability (SEM cells [2]; RPMI 5 mM glucose + 10% FBS, 15.4 µM): 18.4%; cell viability (SEM cells [2]; RPMI 5 mM glucose + 10% FBS, 46.1 µM): 5.19%
CC1Cc2ccccc2N1NC(=O)c1ccc(Cl)c([S+](N)(=O)[O-])c1 (stereo not given) | 474 | 426 | 472 | 467 | 445 | 434 | 463 | 473 | 452 | 111 | 108 | 104 | 106 | 94.3 | 113 | 128 | 103 | 112 | 116 | 97.9 | cell viability (SEM cells [2]; [15]): 107%; cell viability (SEM cells [2]; [16]): 109%; cell viability (SEM cells [2]; [17]): 117%; cell viability (SEM cells [2]; [18]): 106%; cell viability (SEM cells [2]; [19]): 102%; cell viability (SEM cells [2]; [20]): 134%; cell viability (SEM cells [2]; [21]): 100%; cell viability (SEM cells [2]; [22]): 97%; cell viability (SEM cells [2]; [23]): 113%; cell viability (SEM cells [2]; [24]): 111%; cell viability (SEM cells [2]; [25]): 107%
CC(c1cc2ccccc2s1)N(O)C(N)=O (stereo not given) | 463 | 459 | 448 | 474 | 459 | 425 | 456 | 460 | 458 | 112 | 130 | 123 | 118 | 129 | 136 | 132 | 120 | 119 | 116 | 73.1 | 
CN1CCN2c3ccccc3Cc3ccccc3C2C1 (stereo not given) | 467 | 463 | 453 | 433 | 474 | 472 | 453 | 441 | 466 |  |  |  |  |  |  |  |  |  |  |  | 
CC(C)c1cccc(C(C)C)c1O | 453 | 459 | 469 | 463 | 453 | 455 | 453 | 463 | 447 |  |  |  |  |  |  |  |  |  |  |  | 
Cc1cccc(-c2n[nH]cc2-c2ccc3ncccc3n2)n1 | 459 | 449 | 451 | 447 | 458 | 430 |  |  |  |  |  |  |  |  |  |  |  |  |  |  | 
COc1cccc2c1C(=O)c1c(O)c3c(c(O)c1C2=O)C[C@@](O)(C(=O)CO)C[C@@H]3O[C@H]1C[C@H](N)[C@@H](O)[C@H](C)O1 | 359 | 309 | 327 | 369 | 362 | 365 | 364 | 359 | 363 |  |  |  |  |  |  |  |  |  |  |  | 
COC1=CC(c2cc3ccccc3[nH]2)=N/C1=C/c1[nH]c(C)cc1C | 436 | 420 | 391 | 463 | 470 | 448 | 455 | 450 | 452 |  |  |  |  |  |  |  |  |  |  |  | 
COC1=CC=C(C=C1)C/2=C(OC3O[C@@H](C)[C@H](O)[C@@H](O)[C@H]3O)/C(=O)C4=C(O2)C(=C(OC5O[C@H](CO)[C@@H](O)[C@H](O)[C@H]5O)C=C4O)CC=C(C)C (stereo not given in full) | 439 | 420 | 435 | 445 | 457 | 462 | 456 | 459 | 469 |  |  |  |  |  |  |  |  |  |  |  | cell viability (SEM cells [2]; [15]): 127%; cell viability (SEM cells [2]; [16]): 123%; cell viability (SEM cells [2]; [17]): 117%; cell viability (SEM cells [2]; [18]): 118%; cell viability (SEM cells [2]; [19]): 126%; cell viability (SEM cells [2]; [20]): 129%; cell viability (SEM cells [2]; [21]): 124%; cell viability (SEM cells [2]; [22]): 114%; cell viability (SEM cells [2]; [23]): 115%; cell viability (SEM cells [2]; [24]): 80.7%; cell viability (SEM cells [2]; [25]): 14.7%
